In patent publication US20230113037A1 (Bayer Aktiengesellschaft, priority 2019, published 2023):
Where two headings read alike, the source gives them in different places.

Legend:
AHR [1] = molecular target: T1, AHR (Homo sapiens, UniProt P35869); assay: In vitro assay 1: antagonism in human cell line (AHR transactivation, firefly luciferase reporter, kynurenic acid prestimulated); assay type: cell-based; conditions: AHR Antagonism Human IC50 [M]
T1 construct: U87 MG glioblastoma cells (ATCC #HTB-14) endogenously expressing AHR; endogenous in cells; host or cells: U87 MG glioblastoma cells (ATCC #HTB-14)
T1 sequence (P35869 11-848): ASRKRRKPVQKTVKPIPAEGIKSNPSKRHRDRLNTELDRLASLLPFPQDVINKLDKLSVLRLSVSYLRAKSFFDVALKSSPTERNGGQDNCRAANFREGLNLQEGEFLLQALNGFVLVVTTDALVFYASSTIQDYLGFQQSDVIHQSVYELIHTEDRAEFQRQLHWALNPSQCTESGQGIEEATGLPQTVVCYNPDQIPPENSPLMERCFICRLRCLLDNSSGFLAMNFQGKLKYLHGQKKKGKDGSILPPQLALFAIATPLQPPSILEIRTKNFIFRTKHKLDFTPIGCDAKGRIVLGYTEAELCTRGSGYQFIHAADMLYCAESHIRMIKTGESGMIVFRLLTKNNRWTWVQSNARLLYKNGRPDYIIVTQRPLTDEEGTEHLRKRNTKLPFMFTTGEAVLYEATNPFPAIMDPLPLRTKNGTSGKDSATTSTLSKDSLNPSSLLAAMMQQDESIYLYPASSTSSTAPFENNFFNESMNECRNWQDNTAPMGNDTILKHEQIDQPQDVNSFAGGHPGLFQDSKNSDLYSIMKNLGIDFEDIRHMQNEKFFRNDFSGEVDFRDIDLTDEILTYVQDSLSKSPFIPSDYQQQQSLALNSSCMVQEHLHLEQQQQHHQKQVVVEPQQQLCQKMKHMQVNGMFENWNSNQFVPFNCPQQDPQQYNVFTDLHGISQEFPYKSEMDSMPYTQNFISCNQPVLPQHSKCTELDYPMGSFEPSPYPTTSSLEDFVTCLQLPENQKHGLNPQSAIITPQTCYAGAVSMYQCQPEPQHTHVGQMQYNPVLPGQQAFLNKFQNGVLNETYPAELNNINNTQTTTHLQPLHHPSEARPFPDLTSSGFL
Procedure, shortened: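 U87 MG + DRE-firefly/constitutive-Renilla stable reporters; kynurenic acid prestim; dual-luc read; Renilla = tox; normalized vs pos/neg controls (pos: 150 μM KYNA + 5 μM staurosporine).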

AHR [2] = molecular target: T2, AHR (Mus musculus, UniProt P30561); assay: In vitro assay 3: antagonism in mouse cell line (AHR transactivation, firefly luciferase reporter, kynurenic acid prestimulated); assay type: cell-based
T2 sequence (P30561 1-848 P471L/N533S/M589L): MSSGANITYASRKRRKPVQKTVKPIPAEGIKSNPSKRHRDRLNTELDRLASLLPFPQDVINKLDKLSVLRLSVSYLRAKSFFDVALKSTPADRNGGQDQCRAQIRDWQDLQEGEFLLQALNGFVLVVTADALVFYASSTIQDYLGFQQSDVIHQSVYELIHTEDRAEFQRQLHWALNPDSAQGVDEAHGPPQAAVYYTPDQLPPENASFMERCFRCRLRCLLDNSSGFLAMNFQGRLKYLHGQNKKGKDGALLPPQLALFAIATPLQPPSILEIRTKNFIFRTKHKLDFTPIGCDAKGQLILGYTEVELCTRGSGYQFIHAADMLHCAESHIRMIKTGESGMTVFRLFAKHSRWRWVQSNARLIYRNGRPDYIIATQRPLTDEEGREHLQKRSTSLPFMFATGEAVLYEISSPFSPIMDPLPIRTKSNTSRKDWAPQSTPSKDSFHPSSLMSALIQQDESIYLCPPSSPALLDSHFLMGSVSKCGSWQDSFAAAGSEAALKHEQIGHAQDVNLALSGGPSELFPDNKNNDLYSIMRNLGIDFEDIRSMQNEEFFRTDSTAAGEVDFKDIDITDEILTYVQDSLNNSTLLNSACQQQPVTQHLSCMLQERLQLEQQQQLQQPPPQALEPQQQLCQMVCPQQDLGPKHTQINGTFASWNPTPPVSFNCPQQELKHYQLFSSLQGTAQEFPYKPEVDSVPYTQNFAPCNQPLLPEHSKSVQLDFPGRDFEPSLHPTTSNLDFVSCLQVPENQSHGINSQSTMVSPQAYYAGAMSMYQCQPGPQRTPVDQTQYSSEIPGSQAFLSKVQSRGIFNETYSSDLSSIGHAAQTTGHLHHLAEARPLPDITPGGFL
Procedure, shortened: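 Mouse cells stably carrying a DRE-driven AHR-inducible firefly luciferase reporter were prestimulated with the endogenous agonist kynurenic acid before compound addition. Luciferase read by SteadyGlo; cells without kynurenic acid served as full-inhibition control, with normalization to positive and negative controls. Repeat tests reported as mean or median.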

[3] = mouse Hepa 1c1c7 cells, 200 μM kynurenic acid, 20 hours, read-out: AHR Antagonism Mouse IC50
[4] = Hepa 1c1c7 cells, 200 μM kynurenic acid, 20 hours, firefly luciferase reporter, read-out: AHR Antagonism Mouse IC50

Row | Structure (SMILES) | IC50 (AHR [1]) [M] | IC50 (AHR [2]; [3]) [nM] | further results
1 | CC[C@@H](Nc1nc2ccccc2c2nc(-c3cnn(C)c3)nn12)C(N)=O [Example 17, (2R)-2-{[2-(1-methyl-1H-pyrazol-4-yl)[1,2,4]triazolo[1,5-c]quinazolin-5-yl]amino}butanamide] | 7.44e-08 | 27.6 | 
2 | CC[C@@H](Nc1nc2ccccc2c2nc(-c3cscc3C)nn12)C(N)=O [Example 542] | 3.55e-09 | 0.565 | 
3 | CC[C@H](Nc1nc2c(Br)cccc2c2nc(-c3ccnn3C)nn12)C(N)=O [Example 801, (2S)-2-{[7-bromo-2-(1-methyl-1H-pyrazol-5-yl)[1,2,4]triazolo[1,5-c]quinazolin-5-yl]amino}butanamide] |  |  | IC50 (AHR [1]; firefly luciferase reporter): 1.04e-07 M; IC50 (AHR [2]; read-out: AHR Antagonism Mouse IC50, Hepa 1c1c7 cells, 200 μM kynurenic acid, 20 hours, firefly luciferase reporter): 40.5 nM
4 | CS(=N)(=O)c1ccccc1-c1nc2c3ccccc3nc(N[C@@H]3CCCCNC3=O)n2n1 (stereo partly drawn) [Example 650, (3R)-3-({2-[2-(S-methylsulfonimidoyl)phenyl][1,2,4]triazolo[1,5-c]quinazolin-5-yl}amino)azepan-2-one] | 1.1e-07 |  | IC50 (AHR [2]; read-out: AHR Antagonism Mouse IC50, mouse Hepa 1c1c7 cells, 200 μM kynurenic acid, 20 hours): 67.1 nM
5 | O=C1NCCCC[C@H]1Nc1nc2c(Br)cccc2c2nc(-c3ccccc3OC(F)(F)F)nn12 [Example 208, (3R)-3-({7-bromo-2-[2-(trifluoromethoxy)phenyl][1,2,4]triazolo[1,5-c]quinazolin-5-yl}amino)azepan-2-one] | 1.34e-06 | 23.8 | 
6 | C[C@@H](Nc1nc2c(Br)cccc2c2nc(-c3cnn(C)c3)nn12)C(=O)N1CC2(CN(C(=O)OC(C)(C)C)C2)C1 [Example 921, tert-butyl 6-{N-[7-bromo-2-(1-methyl-1H-pyrazol-4-yl)[1,2,4]triazolo[1,5-c]quinazolin-5-yl]-D-alanyl}-2,6-diazaspiro[3.3]heptane-2-carboxylate] |  |  | IC50 (AHR [1]; firefly luciferase reporter): 4.24e-08 M; IC50 (AHR [2]; [4]): 98.3 nM
7 | O=C1NCCCC[C@@H]1Nc1nc2ccccc2c2nc(-c3ccccc3OC(F)F)nn12 [Example 471, (3S)-3-({2-[2-(difluoromethoxy)phenyl][1,2,4]triazolo[1,5-c]quinazolin-5-yl}amino)azepan-2-one] | 5.6e-08 | 5.26 | 
8 | COc1ccc(-c2nc3c4ccc(C(F)(F)F)cc4nc(N[C@@H]4CCCCNC4=O)n3n2)cc1 [Example 548, (3R)-3-{[2-(4-methoxyphenyl)-8-(trifluoromethyl)[1,2,4]triazolo[1,5-c]quinazolin-5-yl]amino}azepan-2-one] | 9.46e-07 | 2400 | 
9 | CC(C)S(=O)(=O)c1cccc2c1nc(N[C@@H]1CCCCNC1=O)n1nc(-c3cnn(C)c3)nc21 [Example 845, (3R)-3-{[2-(1-methyl-1H-pyrazol-4-yl)-7-(propane-2-sulfonyl)[1,2,4]triazolo[1,5-c]quinazolin-5-yl]amino}azepan-2-one] |  |  | IC50 (AHR [1]; firefly luciferase reporter): 6.71e-08 M; IC50 (AHR [2]; [4]): 247 nM
10 | COc1cccc(-c2nc3c4ccccc4nc(N[C@H](CC(C)C)C(N)=O)n3n2)c1 [Example 82, N^2-[2-(3-methoxyphenyl)[1,2,4]triazolo[1,5-c]quinazolin-5-yl]-D-leucinamide] | 8.87e-09 | 12.9 | 
11 | Cn1cc(-c2nc3c4ccccc4nc(NC4CCCNC4=O)n3n2)cn1 (stereo not shown) [Example 13, 3-{[2-(1-methyl-1H-pyrazol-4-yl)[1,2,4]triazolo[1,5-c]quinazolin-5-yl]amino}piperidin-2-one] | 1.21e-06 | 7260 | 
12 | CC[C@H](Nc1nc2ccccc2c2nc(-c3ccc(OC)cc3)nn12)C(N)=O [Example 434, (2S)-2-{[2-(4-methoxyphenyl)[1,2,4]triazolo[1,5-c]quinazolin-5-yl]amino}butanamide] | 6.43e-08 | 75 | 
13 | N#Cc1cccc2c1nc(N[C@@H]1CNCCNC1=O)n1nc(-c3cnn(C4CCC4)c3)nc21 [Example 933, 2-(1-cyclobutyl-1H-pyrazol-4-yl)-5-{[(6R)-5-oxo-1,4-diazepan-6-yl]amino}[1,2,4]triazolo[1,5-c]quinazoline-7-carbonitrile] |  |  | IC50 (AHR [1]; firefly luciferase reporter): 7.39e-08 M; IC50 (AHR [2]; [4]): 138 nM
14 | O=C1NCCCC[C@H]1Nc1nc2ccccc2c2nc(-c3cncc(Cl)c3)nn12 [Example 480, (3R)-3-{[2-(5-chloropyridin-3-yl)[1,2,4]triazolo[1,5-c]quinazolin-5-yl]amino}azepan-2-one] | 2.07e-08 | 14.8 | 
15 | COc1ccc(-c2nc3c4c(C(F)(F)F)cccc4nc(N[C@@H]4CCCCNC4=O)n3n2)cc1 [Example 172, (3R)-3-{[2-(4-methoxyphenyl)-10-(trifluoromethyl)[1,2,4]triazolo[1,5-c]quinazolin-5-yl]amino}azepan-2-one] | 1.29e-08 | 12 | 
16 | CNC(=O)[C@H](C)Nc1nc2ccccc2c2nc(-c3cccc(OC)c3)nn12 [Example 102, N^2-[2-(3-methoxyphenyl)[1,2,4]triazolo[1,5-c]quinazolin-5-yl]-N-methyl-L-alaninamide] | 6.01e-07 | 246 | 
17 | Cc1sccc1-c1nc2c3ccccc3nc(N[C@@H]3CCN(C)C3=O)n2n1 [Example 350] | 4.13e-08 | 3.59 | 
18 | CS(=N)(=O)c1ccc(-c2nc3c4ccccc4nc(N[C@@H]4CCCCNC4=O)n3n2)cc1 (single isomer, unassigned) [Example 307] | 1.35e-07 | 84.7 | 
19 | C[C@@H](Nc1nc2c(Br)cccc2c2nc(-c3cnn(C)c3)nn12)C(=O)NCCN1CCN(C(=O)OC(C)(C)C)CC1 [Example 891, tert-butyl 4-[2-({N-[7-bromo-2-(1-methyl-1H-pyrazol-4-yl)[1,2,4]triazolo[1,5-c]quinazolin-5-yl]-D-alanyl}amino)ethyl]piperazine-1-carboxylate] |  |  | IC50 (AHR [1]; firefly luciferase reporter): 5.75e-08 M; IC50 (AHR [2]; [4]): 66.8 nM

The next lines start with results.

Row | IC50 (AHR [1]) [M] | IC50 (AHR [2]; [3]) [nM] | Structure (SMILES) | further results
20 | 1.93e-08 | 8.12 | N#Cc1ccc(-c2nc3c4ccccc4nc(N[C@@H]4CNCCNC4=O)n3n2)cc1 [Example 718, 4-(5-{[(6R)-5-oxo-1,4-diazepan-6-yl]amino}[1,2,4]triazolo[1,5-c]quinazolin-2-yl)benzonitrile] | 
21 | 1.69e-09 | 11.6 | O=C1NCCCC[C@H]1Nc1nc2c(C(F)(F)F)cccc2c2nc(-c3cnn(CC4CCC4)c3)nn12 [Example 744, (3R)-3-({2-[1-(cyclobutylmethyl)-1H-pyrazol-4-yl]-7-(trifluoromethyl)[1,2,4]triazolo[1,5-c]quinazolin-5-yl}amino)azepan-2-one] | 
22 | 3.11e-09 | 9.93 | N#Cc1cccc2c1nc(N[C@@H]1CCCCNC1=O)n1nc(-c3cnn(C4CC4)c3)nc21 [Example 761, 2-(1-cyclopropyl-1H-pyrazol-4-yl)-5-{[(3R)-2-oxoazepan-3-yl]amino}[1,2,4]triazolo[1,5-c]quinazoline-7-carbonitrile] | 
23 | 4.08e-09 | 3.39 | O=C1NCCCC[C@H]1Nc1nc2ccccc2c2nc(-c3cnn(C4CCC4)c3)nn12 [Example 603, (3R)-3-{[2-(1-cyclobutyl-1H-pyrazol-4-yl)[1,2,4]triazolo[1,5-c]quinazolin-5-yl]amino}azepan-2-one] | 
